Here are results for two compounds from patent US20250195521A1 (Revolution Medicines, Inc., priority 2020, published 2025).

The target of test [1] is NRAS WT binding to BRAF RBD (Homo sapiens (Human), UniProt P01111+P62937). Nature of the test: Ras-Raf disruption/FRET/MOA assay, NRAS WT. Type of test: biochemical. A digest of the protocol: (§1)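 Compounds (top 30 μM, 3-fold, 10 points) promote Cyclophilin A (25 μM) ternary complex with His6-Ras-GMPPNP (12.5 nM), disrupting GST-BRAF RBD (50 nM) binding; 3 h, 25°C, 25 mM HEPES pH 7.3, 100 mM NaCl, 5 mM MgCl2. Detection reagents (Eu anti-His 10 nM, APC anti-GST 50 nM) added for 1.5 h; IC50 reported.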

Test [2] deals with KRAS G12S binding to BRAF RBD (Homo sapiens (Human), UniProt P01116+P62937, G12S). Nature of the test: Ras-Raf disruption/FRET/MOA assay, KRAS G12S. Type of test: biochemical. From the text: (§2) Note—The following protocol describes a procedure for monitoring disruption of K-Ras G12C(GMP-PNP) binding to BRAF^RBD by a compound of the invention. This protocol may also be executed substituting other Ras proteins or nucleotides.
(§3) The purpose of this biochemical assay was to measure the ability of test compounds to facilitate ternary complex formation between a nucleotide-loaded K-Ras isoform and Cyclophilin A; the resulting ternary complex disrupts binding to a BRAF^RBD construct, inhibiting K-Ras signaling through a RAF effector. Data is reported as IC50 values.
(§4) Compound was present in plate wells as a 10-point 3-fold dilution series starting at a final concentration of 30 μM. After incubation at 25° C. for 3 hours, a mixture of Anti-His Eu—W1024 and anti-GST allophycocyanin was then added to assay sample wells at final concentrations of 10 nM and 50 nM, respectively, and the reaction incubated for an additional 1.5 hours. […] Compounds that facilitate disruption of a K-Ras: RAF complex were identified as those eliciting a decrease in the TR-FRET ratio relative to DMSO control wells.

The target of test [3] is KRAS G13D binding to BRAF RBD (Homo sapiens (Human), UniProt P01116+P62937, G13D). Nature of the test: Ras-Raf disruption/FRET/MOA assay, KRAS G13D. Type of test: biochemical. In a few lines:
(§5)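 Cpd 10-pt 3-fold dilution, top 30 μM final; Ras/CypA/BRAF RBD mix 3 h, 25° C. Add anti-His Eu-W1024 10 nM + anti-GST APC 50 nM final, 1.5 h. Readout TR-FRET ratio decrease vs DMSO → IC50.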

Test [4] has as its target NRAS Q61K binding to BRAF RBD (Homo sapiens (Human), UniProt P01111+P62937, Q61K). As to the kind of experiment: Ras-Raf disruption/FRET/MOA assay, NRAS Q61K. Type of test: biochemical. In a few lines: as §1
The test system of test [5] is K-Ras G12C (NCI-H358 cells). Nature of the test: Potency assay: pERK in NCI-H358 cells. To be noted: Homo sapiens; NCI-H358 cells, 4 hours; read-out: pERK EC50 (H358 KRAS G12C). Type of test: cell-based, human. In a few lines:
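Cells plated the day before were exposed for 4 h at 37° C, 5% CO2 to a 10-point, 3-fold DMSO dilution series (10 mM top stock), in duplicate. Phospho-ERK was read by AlphaLISA SureFire Ultra or by In-Cell Western with DRAQ5 DNA stain, and IC50 came from a 4-parameter sigmoidal fit.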

Test [6] has as its target NRAS G12C binding to BRAF RBD (Homo sapiens (Human), UniProt P01111+P62937, G12C). Nature of the test: Ras-Raf disruption/FRET/MOA assay, NRAS G12C. Type of test: biochemical. In a few lines:
as §5

Test [7] concerns the target K-Ras G12C(GMP-PNP) binding to BRAF RBD (Homo sapiens (Human), UniProt P01116+P62937, G12C). Nature of the test: Disruption of BRAF RBD interaction with K-Ras (FRET / MOA assay), K-Ras G12C. Type of test: biochemical. The settings on record: read-out: KRAS G12C FRET IC50. In a few lines: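 First, test compounds in a 10-point 3-fold series (30 μM final top) were incubated for 3 hours at 25° C with nucleotide-loaded Ras, cyclophilin A and a BRAF RBD construct. Next, Eu anti-His and allophycocyanin anti-GST detection reagents were added for 1.5 hours. Finally, IC50s were derived from loss of TR-FRET signal against DMSO.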

For test [8], the target named is KRAS G12V binding to BRAF RBD (Homo sapiens (Human), UniProt P01116+P62937, G12V). Nature of the test: Ras-Raf disruption/FRET/MOA assay, KRAS G12V. Type of test: biochemical. The settings on record: read-out: KRAS G12V FRET IC50.
From the text: as §2, §3, §4

For test [9], the target named is KRAS WT binding to BRAF RBD (Homo sapiens (Human), UniProt P01116+P62937). As to the kind of experiment: Ras-Raf disruption/FRET/MOA assay, KRAS WT. Type of test: biochemical.
From the text: Disruption of B-Raf Ras-binding Domain (BRAF^RBD) Interaction with K-Ras by Compounds of the Invention (also called a FRET assay or an MOA assay)
as §2, §3
as §4, with “In assay buffer containing 25 mM HEPES pH 7.3, 0.002% Tween20, 0.1% BSA, 100 mM NaCl and 5 mM MgCl2, tagless Cyclophilin A, His6-K-Ras-GMPPNP, and GST-BRAF^RBD were combined in a 384-well assay plate at final concentrations of 25 μM, 12.5 nM and 50 nM, respectively. Compound was” for “Compound was”

In test [10] the target is KRAS Q61H binding to BRAF RBD (Homo sapiens (Human), UniProt P01116+P62937, Q61H). As to the kind of experiment: Ras-Raf disruption/FRET/MOA assay, KRAS Q61H. Type of test: biochemical. A digest of the protocol:
as §1

For another test, the system named is NCI-H358 (K-Ras G12C). As to the kind of experiment: CellTiter-Glo cell viability assay, NCI-H358. Type of test: cell-based, human. To be noted: Homo sapiens, NCI-H358, 120 h, 5-day treatment; read-out: H358 Cell Viability assay data (K-Ras G12C, IC50). In a few lines: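 Viability read-out was luminescent (CellTiter-Glo) on day 5 of compound exposure in K-Ras G12C NCI-H358 cells. Values were expressed as percent of mean DMSO signal and fitted with a four-parameter logistic curve.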

Test [11] has as its target NRAS Q61R binding to BRAF RBD (Homo sapiens (Human), UniProt P01111+P62937, Q61R). As to the kind of experiment: Ras-Raf disruption/FRET/MOA assay, NRAS Q61R. Type of test: biochemical. A digest of the protocol: as §1
Test [12] has as its system NCI-H358 cells (K-Ras G12C). As to the kind of experiment: CellTiter-Glo cell viability, NCI-H358. Type of test: cell-based, human. To be noted: Homo sapiens, NCI-H358, 120 h, K-Ras G12C, 5-day treatment; read-out: H358 Cell Viability IC50. A digest of the protocol: (§6)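 Viability read by luminescence on day 5 after direct compound addition to cells, following ~30 min room-temperature equilibration. Values expressed as percent of mean DMSO signal, curves fitted with a four-parameter logistic model.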

The test system of test [13] is Capan-1 cells (K-Ras G12V). As to the kind of experiment: CellTiter-Glo cell viability, Capan-1. Type of test: cell-based, human. The settings on record: Homo sapiens, CAPAN-1, 120 h, K-Ras G12V, 5-day treatment; read-out: Capan-1 Cell Viability IC50. In a few lines: as §6
A further test concerns the target KRAS G12S (Homo sapiens (Human), UniProt P01116+P62937, G12S). Nature of the test: Ras-Raf disruption/FRET/MOA assay (BRAF RBD, Cyclophilin A). Type of test: biochemical. To be noted: read-out: KRAS G12S FRET IC50. A digest of the protocol:
(§7)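 Measured: compound-facilitated Cyclophilin A:Ras complex blocking RAF RBD binding. Conditions: 12.5 nM Ras-GMPPNP, 50 nM BRAF RBD, 25 μM CypA, 3 h plus 1.5 h detection. Output: IC50 from TR-FRET ratio.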

Another test deals with KRAS Q61H (Homo sapiens (Human), UniProt P01116+P62937, Q61H). Described as above. Type of test: biochemical. A digest of the protocol:
as §7

The next test deals with KRAS G12V (Homo sapiens (Human), UniProt P01116+P62937, G12V). The test is described as above. Type of test: biochemical. The settings on record: read-out: KRAS G12V FRET IC50. In a few lines:
as §7

A further test deals with NRAS Q61R (Homo sapiens (Human), UniProt P01111+P62937, Q61R). The description is as above. Type of test: biochemical. In a few lines: (§8)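 TR-FRET read after 1.5 h with 10 nM anti-His Eu-W1024 and 50 nM anti-GST APC, following 3 h at 25 °C of GMPPNP-loaded His6-Ras (12.5 nM), GST-BRAF RBD (50 nM) and Cyclophilin A (25 μM) with compound from 30 μM final, 10 points, 3-fold. IC50 reported; pH 7.3 HEPES, 100 mM NaCl.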

For the next test, the target named is NRAS G12C (Homo sapiens (Human), UniProt P01111+P62937, G12C). The test is described as above. Type of test: biochemical. To be noted: read-out: NRAS G12C FRET data IC50. In a few lines:
as §8

The target of the next test is KRAS G12C (Homo sapiens (Human), UniProt P01116+P62937, G12C). The test is described as above. Type of test: biochemical. The settings on record: read-out: KRAS G12C FRET IC50. In a few lines:
as §7

The next test concerns the target NRAS WT (Homo sapiens (Human), UniProt P01111+P62937). The description is as above. Type of test: biochemical. A digest of the protocol:
as §8

The target of the next test is KRAS G13C (Homo sapiens (Human), UniProt P01116+P62937, G13C). Described as above. To be noted: read-out: KRAS G13C FRET IC50. Type of test: biochemical. In a few lines: as §7
The next test concerns the target KRAS G13D (Homo sapiens (Human), UniProt P01116+P62937, G13D). Described as above. Type of test: biochemical. To be noted: read-out: KRAS G13D FRET data IC50. In a few lines:
as §7

The next test addresses NRAS Q61K (Homo sapiens (Human), UniProt P01111+P62937, Q61K). The test is described as above. Type of test: biochemical. In a few lines: as §8
The next test has as its target KRAS G12D (Homo sapiens (Human), UniProt P01116+P62937, G12D). The test is described as above. Type of test: biochemical. To be noted: read-out: KRAS G12D FRET IC50. In a few lines:
as §7

A further test has as its target KRAS WT (Homo sapiens (Human), UniProt P01116+P62937). The test is described as above. Type of test: biochemical. To be noted: read-out: KRAS WT FRET data IC50. In a few lines: as §7

Bounds are passed on as bounds.

Chain of KRAS WT binding to BRAF RBD (P01116 other isoform, or with tags, fused parts or gaps): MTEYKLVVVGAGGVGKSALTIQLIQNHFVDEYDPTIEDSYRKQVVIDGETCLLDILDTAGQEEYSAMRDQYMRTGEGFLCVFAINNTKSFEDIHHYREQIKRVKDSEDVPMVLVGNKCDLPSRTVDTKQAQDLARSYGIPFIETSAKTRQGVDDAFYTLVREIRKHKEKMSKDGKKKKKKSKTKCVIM
Chain of KRAS WT binding to BRAF RBD (P62937 whole entry, the tested form may be a part): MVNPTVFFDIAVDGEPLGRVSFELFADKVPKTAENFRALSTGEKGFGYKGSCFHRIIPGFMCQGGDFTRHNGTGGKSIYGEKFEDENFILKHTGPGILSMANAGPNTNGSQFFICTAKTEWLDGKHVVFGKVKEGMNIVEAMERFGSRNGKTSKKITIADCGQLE
Chain of K-Ras G12C(GMP-PNP) binding to BRAF RBD (P01116 other isoform, or with tags, fused parts or gaps G12C): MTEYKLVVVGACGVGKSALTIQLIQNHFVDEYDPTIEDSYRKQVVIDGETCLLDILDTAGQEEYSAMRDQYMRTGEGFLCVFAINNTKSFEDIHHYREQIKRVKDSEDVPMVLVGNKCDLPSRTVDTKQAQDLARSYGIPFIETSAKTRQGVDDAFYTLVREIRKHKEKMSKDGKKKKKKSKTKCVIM
Chain of K-Ras G12C(GMP-PNP) binding to BRAF RBD (P62937 whole entry): as the sequence (P62937 whole entry, the tested form may be a part) above
Chain of KRAS G12S binding to BRAF RBD (P01116 other isoform, or with tags, fused parts or gaps G12S): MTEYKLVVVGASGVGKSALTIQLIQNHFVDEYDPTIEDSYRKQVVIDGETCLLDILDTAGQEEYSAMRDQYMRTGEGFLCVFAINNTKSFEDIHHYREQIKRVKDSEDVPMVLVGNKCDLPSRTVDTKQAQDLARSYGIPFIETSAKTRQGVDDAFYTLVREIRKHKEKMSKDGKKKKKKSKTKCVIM
Chain of KRAS G12S binding to BRAF RBD (P62937 whole entry, canonical isoform): as the sequence (P62937 whole entry, the tested form may be a part) above
Chain of KRAS G12V binding to BRAF RBD (P01116 other isoform, or with tags, fused parts or gaps G12V): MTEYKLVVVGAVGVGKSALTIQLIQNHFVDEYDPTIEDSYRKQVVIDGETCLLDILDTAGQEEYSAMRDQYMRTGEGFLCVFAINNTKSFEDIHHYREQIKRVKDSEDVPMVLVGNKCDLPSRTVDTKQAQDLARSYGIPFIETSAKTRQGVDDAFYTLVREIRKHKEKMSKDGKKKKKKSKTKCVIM
Chain of KRAS G12V binding to BRAF RBD (P62937 whole entry): as the sequence (P62937 whole entry, the tested form may be a part) above
Chain of NRAS Q61K binding to BRAF RBD (P01111 whole entry Q61K): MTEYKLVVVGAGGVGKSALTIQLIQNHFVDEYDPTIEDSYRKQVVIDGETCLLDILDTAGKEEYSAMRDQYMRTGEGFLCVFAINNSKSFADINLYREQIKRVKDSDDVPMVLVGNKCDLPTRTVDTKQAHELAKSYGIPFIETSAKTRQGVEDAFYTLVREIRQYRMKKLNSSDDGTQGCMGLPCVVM
Chain of NRAS Q61K binding to BRAF RBD (P62937 whole entry): as the sequence (P62937 whole entry, the tested form may be a part) above
Chain of NRAS Q61K (P01111 whole entry Q61K): as the sequence (P01111 whole entry Q61K) above
Chain of NRAS Q61K (P62937 whole entry): as the sequence (P62937 whole entry, the tested form may be a part) above
Chain of KRAS WT (P01116 other isoform, or with tags, fused parts or gaps): as the sequence (P01116 other isoform, or with tags, fused parts or gaps) above
Chain of KRAS WT (P62937 whole entry): as the sequence (P62937 whole entry, the tested form may be a part) above
Chain of KRAS G12S (P01116 other isoform, or with tags, fused parts or gaps G12S): as the sequence (P01116 other isoform, or with tags, fused parts or gaps G12S) above
Chain of KRAS G12S (P62937 whole entry): as the sequence (P62937 whole entry, the tested form may be a part) above
Chain of KRAS G13C (P01116 other isoform, or with tags, fused parts or gaps G13C): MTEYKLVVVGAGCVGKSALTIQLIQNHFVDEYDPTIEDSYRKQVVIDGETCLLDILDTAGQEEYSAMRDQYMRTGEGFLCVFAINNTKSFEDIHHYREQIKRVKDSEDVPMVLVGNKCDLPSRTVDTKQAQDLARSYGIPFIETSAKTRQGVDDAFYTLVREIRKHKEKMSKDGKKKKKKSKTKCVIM
Chain of KRAS G13C (P62937 whole entry): as the sequence (P62937 whole entry, the tested form may be a part) above
Chain of KRAS G12C (P01116-2 other isoform, or with tags, fused parts or gaps G12C): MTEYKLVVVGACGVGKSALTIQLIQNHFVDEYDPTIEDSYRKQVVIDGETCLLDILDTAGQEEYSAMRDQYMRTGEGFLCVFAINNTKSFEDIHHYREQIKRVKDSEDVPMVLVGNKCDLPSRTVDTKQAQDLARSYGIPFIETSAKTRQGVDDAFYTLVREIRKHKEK
Chain of KRAS G12C (P62937 whole entry): as the sequence (P62937 whole entry, the tested form may be a part) above
Chain of KRAS G12V (P01116 other isoform, or with tags, fused parts or gaps G12V): as the sequence (P01116 other isoform, or with tags, fused parts or gaps G12V) above
Chain of KRAS G12V (P62937 whole entry): as the sequence (P62937 whole entry, the tested form may be a part) above
Chain of KRAS G13D (P01116 other isoform, or with tags, fused parts or gaps G13D): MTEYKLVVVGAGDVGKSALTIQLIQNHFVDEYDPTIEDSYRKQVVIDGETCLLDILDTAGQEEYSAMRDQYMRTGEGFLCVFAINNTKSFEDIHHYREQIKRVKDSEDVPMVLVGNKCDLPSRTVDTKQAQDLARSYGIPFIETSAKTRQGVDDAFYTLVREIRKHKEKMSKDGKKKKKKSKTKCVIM
Chain of KRAS G13D (P62937 whole entry): as the sequence (P62937 whole entry, the tested form may be a part) above
Chain of KRAS G13D binding to BRAF RBD (P01116 other isoform, or with tags, fused parts or gaps G13D): as the sequence (P01116 other isoform, or with tags, fused parts or gaps G13D) above
Chain of KRAS G13D binding to BRAF RBD (P62937 whole entry): as the sequence (P62937 whole entry, the tested form may be a part) above

In the case of `C=CC(=O)N(C)CC1CCN(C(=O)N(C)[C@H](C(=O)N[C@H]2Cc3nc(cs3)-c3ccc4c(c3)c(c(-c3cccnc3[C@H](C)OC)n4CC)CC(C)(C)COC(=O)[C@@H]3CCCN(N3)C2=O)C(C)C)CC1` (atropisomer, axis not shown) [Compound A629], the 50% inhibitory concentration (IC50) was in the range of 10 to 100 nM in test [1]; 10 to 100 nM in test [2]; 100 to 1000 nM in [3]; 10 to 100 nM in [4]; 10 to 100 nM in [6]; 10 to 100 nM in test [7]. For the same compound, the concentration for half-maximal inhibition (IC50) was 10 to 100 nM in test [8]; 10 to 100 nM in [9]; 10 to 100 nM in test [10]; < 10 nM in the test with NCI-H358 (K-Ras G12C); 10 to 100 nM in [11]. The half-maximal effective concentration (EC50) in test [5] was < 5 µM.
Take `CCn1c(-c2cccnc2[C@H](C)OC)c2c3cc(ccc31)-c1csc(n1)C[C@H](NC(=O)N1CC[C@@H]1COC)C(=O)N1CCC[C@H](N1)C(=O)OCC(C)(C)C2` [Compound A264]: the concentration for half-maximal inhibition (IC50) in test [2] lay within 10 to 100 nM; in test [12], 100 to 1000 nM; in [7] it was 10 to 100 nM; in test [8], 10 to 100 nM; in [9], 10 to 100 nM; in test [13], 100 to 1000 nM. Further, the IC50 with NCI-H358 (K-Ras G12C) lay within 10 to 100 nM; on KRAS G12S it was 100 to 1000 nM; against KRAS Q61H, 100 to 1000 nM; at KRAS G12V it was 10 to 100 nM; against NRAS Q61R, 100 to 1000 nM; on NRAS G12C, 10 to 100 nM. Further, the IC50 fell in the range of 10 to 100 nM on KRAS G12C; 100 to 1000 nM against NRAS WT; 100 to 1000 nM on KRAS G13C; 100 to 1000 nM on KRAS G13D; 100 to 1000 nM at NRAS Q61K; 100 to 1000 nM on KRAS G12D. Moreover, the half-maximal inhibitory concentration (IC50) at KRAS WT lay in the range of 100 to 1000 nM.
